Reference: paper PMC2806602 (The Journal of neuroscience : the official journal of the …, 2009)
Residue numbers refer to the chain shown, from its start.

Tests used:
Format in all cases: cell-based
[1] = target: T1, GluRδ2^Lc E531A (Rattus norvegicus, UniProt Q63226, A654T/E531A); experiment: Two-electrode voltage-clamp recordings in Xenopus oocytes, GluRδ2^Lc E531A
T1 sequence (Q63226 24-1007 E531A/A654T): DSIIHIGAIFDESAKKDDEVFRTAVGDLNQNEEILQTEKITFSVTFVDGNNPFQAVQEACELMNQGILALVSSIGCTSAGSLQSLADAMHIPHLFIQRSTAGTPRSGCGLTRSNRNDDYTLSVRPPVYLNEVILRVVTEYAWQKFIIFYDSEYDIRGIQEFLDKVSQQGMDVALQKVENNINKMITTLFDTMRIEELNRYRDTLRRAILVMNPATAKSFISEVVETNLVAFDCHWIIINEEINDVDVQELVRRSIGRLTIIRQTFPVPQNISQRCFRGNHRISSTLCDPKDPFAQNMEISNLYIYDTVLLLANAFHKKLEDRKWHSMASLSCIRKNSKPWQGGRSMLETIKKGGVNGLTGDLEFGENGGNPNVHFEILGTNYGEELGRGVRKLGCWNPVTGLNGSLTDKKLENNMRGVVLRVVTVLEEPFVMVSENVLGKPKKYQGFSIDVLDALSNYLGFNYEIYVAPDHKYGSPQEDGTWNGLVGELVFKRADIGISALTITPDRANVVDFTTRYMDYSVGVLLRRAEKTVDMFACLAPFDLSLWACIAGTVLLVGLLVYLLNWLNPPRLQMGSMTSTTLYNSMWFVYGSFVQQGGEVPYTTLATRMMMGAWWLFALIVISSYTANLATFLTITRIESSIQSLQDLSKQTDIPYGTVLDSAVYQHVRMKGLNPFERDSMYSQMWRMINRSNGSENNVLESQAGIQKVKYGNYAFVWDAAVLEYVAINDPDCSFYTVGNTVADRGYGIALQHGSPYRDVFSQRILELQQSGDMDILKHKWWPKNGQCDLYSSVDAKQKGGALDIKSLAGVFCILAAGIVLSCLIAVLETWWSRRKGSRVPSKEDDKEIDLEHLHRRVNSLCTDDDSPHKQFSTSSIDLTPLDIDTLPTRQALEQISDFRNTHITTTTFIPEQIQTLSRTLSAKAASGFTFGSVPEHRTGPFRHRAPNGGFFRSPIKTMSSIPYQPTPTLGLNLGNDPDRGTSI

[2] = target: T2, GluRδ2^Lc D535A (Rattus norvegicus, UniProt Q63226, A654T/D535A); experiment: Two-electrode voltage-clamp recordings in Xenopus oocytes, GluRδ2^Lc D535A
T2 sequence (Q63226 24-1007 D535A/A654T): T1 sequence (Q63226 24-1007 E531A/A654T) with A508E, D512A

[3] = target: T3, GluRδ2^Lc E531C+D782C (Rattus norvegicus, UniProt Q63226, A654T/D782C/E531C); experiment: Two-electrode voltage-clamp recordings in Xenopus oocytes, GluRδ2^Lc E531C+D782C
T3 sequence (Q63226 24-1007 E531C/A654T/D782C): T1 sequence (Q63226 24-1007 E531A/A654T) with A508C, D759C

D-serine + 0 mM Ca^2+ nH ([1]; Hill slope, 0 mM Ca^2+)	D-serine + 3 mM Ca^2+ nH ([1]; Hill slope, 3 mM Ca^2+)	D-serine + 0 mM Ca^2+ nH ([2]; Hill slope, 0 mM Ca^2+)	D-serine + 3 mM Ca^2+ nH ([2]; Hill slope, 3 mM Ca^2+)	D-serine + 0 mM Ca^2+ nH ([3]; Hill slope, 0 mM Ca^2+)	D-serine + 3 mM Ca^2+ nH ([3]; Hill slope, 3 mM Ca^2+)	Ca^2+ potentiation (relative to baseline) ([1]; 3 mM Ca^2+, ± SEM)	Ca^2+ potentiation (relative to baseline) ([2]; 3 mM Ca^2+, ± SEM)	Ca^2+ potentiation (relative to baseline) ([3]; 3 mM Ca^2+, ± SEM)	SMILES
1.1	1.9	2.3	2.2	0.8	0.8	–	–	–	N[C@H](CO)C(=O)O [D-serine]
–	–	–	–	–	–	1.6 ± 0.08 fold	1.0 ± 0.01 fold	0.9 ± 0.01 fold	[Ca+2] [Ca^2+, calcium]
